Series [1] deals with Mycobacterium tuberculosis. Kind of series: Antitubercular activity against multi drug resistant Mycobacterium tuberculosis 16833 after 7 days by MABA method. The class given is functional. The following applies: Mycobacterium tuberculosis, 16833, 168 h.
Series [2] in a line: Selectivity index, ratio of CC50 for African green monkey Vero cells to MIC>90 multi drug resistant Mycobacterium tuberculosis 16995. The following applies: read-out: Selectivity Index. It is filed as toxicity.
The test system of series [3] is Mycobacterium tuberculosis. Kind of series: Antitubercular activity against multi drug resistant Mycobacterium tuberculosis 16995 after 7 days by MABA method. It is filed as functional. The following applies: Mycobacterium tuberculosis, 16995, 168 h.

Turning to `CCc1nc2ccc(Cl)cn2c1C(=O)NCc1ccc(N2CCC(c3ccc(OC(F)(F)F)cc3)CC2)cc1` [TELACEBEC], the MIC90 in series [1] and in series [3] was < 0.035 µM throughout. In addition, the selectivity ratio in series [2] is > 1000.

Regarding `NNC(=O)c1ccncc1` [ISONIAZID], the MIC90 in series [1] and in series [3] was > 40 µM throughout.

On to `CCc1nc2ccc(Cl)cn2c1C(=O)NCc1ccc(N2CC3CN(CC4CCCCC4)CC3C2)cc1` (configuration not stated), for which the MIC90 in series [1] and in series [3] was < 0.035 µM in each case. Also, the selectivity ratio in series [2] is > 1000.

Turning to `CCc1nc2ccc(Cl)cn2c1C(=O)NCc1ccc(N2CC3CCC2CN3CC2CCCCC2)cc1` (configuration not stated), the MIC90 in series [1] and in series [3] was < 0.035 µM throughout.

Consider `O=c1nc(N2CCN(CC3CCCCC3)CC2)sc2c([N+](=O)[O-])cc(C(F)(F)F)cc12` [MACOZINONE], for which the MIC90 in series [1] and in series [3] was < 0.035 µM each time.

As to `CCc1nc2ccc(Cl)cn2c1C(=O)NCc1ccc(N2CCN(Cc3ccc(OC(F)(F)F)cc3)CC2)cc1`, the MIC90 in series [1] and in series [3] was < 0.035 µM each time.

On to `CCc1nc2ccc(Cl)cn2c1C(=O)NCc1ccc(N2CCC3(CC2)CCN(c2ccc(OC(F)(F)F)cc2)CC3)cc1`, for which the MIC90 in series [1] and in series [3] was < 0.035 µM in each case. Besides, the selectivity ratio in series [2] was > 1000.

Turning to `CCc1nc2ccc(Cl)cn2c1C(=O)NCc1ccc(N2CCN(CC3CCCCC3)CC2)cc1`, the MIC90 in series [1] and in series [3] was < 0.035 µM in each case. Moreover, the selectivity ratio in series [2] is > 1000.

Regarding `CCc1nc2ccc(Cl)cn2c1C(=O)NCc1ccc(N2CC3CN(c4ccc(OC(F)(F)F)cc4)CC3C2)cc1` (configuration not stated), the MIC90 in series [1] and in series [3] was < 0.035 µM in each case.

On to `CCc1nc2ccc(Cl)cn2c1C(=O)NCc1ccc(N2CC3CN(Cc4ccc(OC(F)(F)F)cc4)CC3C2)cc1` (configuration not stated), for which the MIC90 in series [1] and in series [3] was < 0.035 µM each time. In addition, in series [2], the selectivity ratio is > 586.

Regarding `CO[C@H]1/C=C/O[C@@]2(C)Oc3c(C)c(O)c4c(O)c(c(/C=N/N5CCN(C)CC5)c(O)c4c3C2=O)NC(=O)/C(C)=C\C=C\[C@H](C)[C@H](O)[C@@H](C)[C@@H](O)[C@@H](C)[C@H](OC(C)=O)[C@@H]1C` [RIFAMPIN], the MIC90 in series [1] and in series [3] was > 40 µM throughout.

The values above are taken from ChEMBL document CHEMBL4400510, “Synthesis and antitubercular evaluation of reduced lipophilic imidazo[1,2-a]pyridine-3-carboxamide derivatives” (Eur J Med Chem, 2019).
